Patent US8895535B2, “Pyrrolidinones as MetAP-2 inhibitors” (Merck Patent GmbH, priority 2010, dated 2014)
pIC50: −log10 of the molar value.

biological target: MetAP-2 (Homo sapiens, UniProt P50579); assay: MetAP-2 activity measurement (coupled enzymatic reactions, substrate Met-Arg-Ser); format: biochemical; settings: Inhibition of MetAP-2; read-out: IC50 enzyme
Procedure: MetAP-2 Activity Measurement
The MetAP-2 activity is determined by coupling enzymatic reactions. The tripeptide Met-Arg-Ser (MAS) is employed as substrate. The methionine liberated is firstly converted into Metox and H2O2 by L-aminooxidase (AAO).
MetAP-2 activity can be recorded continuously as kinetics. The reaction scheme illustrates that one mol of dianisidineox is formed per mol of methionene. The MetAP-2 enzyme activity can therefore be calculated directly as Δ absorption per time unit. […] of the MetAP-2 activity (mol of Met/time unit) is possible with the aid of the dianisidineox extinction coefficient.
The change in extinction per time unit is depicted graphically and a slope calculation is carried out in the visually linear region of the reaction.

MetAP-2, sequence (P50579 whole entry, species assumed): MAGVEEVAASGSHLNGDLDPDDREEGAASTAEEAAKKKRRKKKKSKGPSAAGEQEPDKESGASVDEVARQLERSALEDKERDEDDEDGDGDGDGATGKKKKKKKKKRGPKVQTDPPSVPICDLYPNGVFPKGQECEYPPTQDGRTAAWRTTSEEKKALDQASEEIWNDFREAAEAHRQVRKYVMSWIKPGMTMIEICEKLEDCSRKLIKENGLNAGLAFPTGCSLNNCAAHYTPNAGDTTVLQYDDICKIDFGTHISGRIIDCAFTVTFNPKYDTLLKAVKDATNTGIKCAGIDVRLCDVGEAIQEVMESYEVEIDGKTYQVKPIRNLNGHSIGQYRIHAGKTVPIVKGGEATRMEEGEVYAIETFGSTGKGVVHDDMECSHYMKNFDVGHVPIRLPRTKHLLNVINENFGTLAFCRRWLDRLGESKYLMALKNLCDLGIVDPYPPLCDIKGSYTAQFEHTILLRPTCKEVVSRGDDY

| Structure (SMILES) | pIC50 |
| --- | --- |
| O=C(NCc1cccc(Cl)c1F)[C@]1(O)CCN(c2cccc(Cl)c2)C1=O [A68] | 5.00 to 6.00 |
| CC(C)(C)c1cnc(CCNC(=O)[C@@]2(O)CCN(c3ccccc3)C2=O)o1 [A2] | < 5.00 |
| O=C(NCCc1cccs1)[C@@]1(O)CCN(c2ccc(F)cc2)C1=O [A32] | 6.00 to 8.00 |
| O=C(NCCc1cc(F)cc(Cl)c1)[C@]1(O)CCN(c2cccc(C(F)(F)F)c2)C1=O [A220] | 5.00 to 6.00 |
| CC(C)(C)c1noc(CCNC(=O)[C@@]2(O)CCN(c3ccccc3)C2=O)n1 [A34] | < 5.00 |
| CC(C)C(C)NC(=O)[C@@]1(O)CCN(c2ccccc2)C1=O (stereo partly drawn) [A326] | 5.00 to 6.00 |
| O=C(NCc1cccc(Cl)c1F)[C@@]1(O)CCN(c2cccc(Cl)c2)C1=O [A57] | 6.00 to 8.00 |
| O=C(NCCc1cccs1)[C@@]1(O)CCN(c2ccc(Br)cc2)C1=O [A30] | 6.00 to 8.00 |
| COC(=O)N1CCc2cc(N3CCC(O)(C(=O)NCc4cc(F)cc(Cl)c4)C3=O)ccc21 (stereo not drawn) [A286] | 6.00 to 8.00 |
| CS(=O)(=O)c1ccc(N2CC[C@](O)(C(=O)NCc3cc(F)cc(Cl)c3)C2=O)cc1 [A260] | 6.00 to 8.00 |
| O=C(NCCc1cccs1)[C@]1(O)CCN(c2ccc(F)cc2)C1=O [A78] | 5.00 to 6.00 |
| O=C(NCc1cccc(Br)c1)[C@@]1(O)CCN(c2ccc(F)cc2F)C1=O [A52] | 6.00 to 8.00 |
| CCc1nnn(CCNC(=O)[C@]2(O)CCN(c3ccccc3)C2=O)n1 [A42] | < 5.00 |
| O=C(NCCc1cccs1)[C@]1(O)CCN(c2cccc(Cl)c2)C1=O [A40] | 6.00 to 8.00 |
| CC(C)CCNC(=O)C1(O)CCN(c2ccccc2)C1=O (stereo not drawn) [A63] | 6.00 to 8.00 |
| O=C(NCc1cccc(Br)c1)[C@@]1(O)CCN(c2ccc(F)cc2)C1=O [A38] | 6.00 to 8.00 |
| O=C(NCc1cccc(Cl)c1F)[C@@]1(O)CCN(c2ccc(F)cc2)C1=O [A58] | 6.00 to 8.00 |
| CN(Cc1ccsc1)C(=O)[C@@]1(O)CCN(c2ccccc2)C1=O [A321] | < 5.00 |
| O=C(NCc1cccc(Br)c1)[C@@]1(O)CCN(c2ccc3ccccc3c2)C1=O [A54] | 6.00 to 8.00 |
| O=C(NCc1cccc(Br)c1)[C@@]1(O)CCN(c2ccc(F)c(Cl)c2)C1=O [A50] | 6.00 to 8.00 |

| Structure (SMILES) | pIC50 |
| --- | --- |
| CC(=O)N1CCc2cc(N3CCC(O)(C(=O)NCCc4cc(F)cc(Cl)c4)C3=O)ccc21 (stereo not drawn) [A261] | 6.00 to 8.00 |
| O=C(NCCCN1CCOCC1)[C@@]1(O)CCN(c2ccccc2)C1=O [A292] | < 5.00 |
| O=C(NCCc1noc(C2CCCC2)n1)[C@@]1(O)CCN(c2ccccc2)C1=O [A12] | < 5.00 |
| O=C(NCCN1CCCC1)[C@@]1(O)CCN(c2ccccc2)C1=O [A45] | < 5.00 |
| Cn1cc(N2CC[C@](O)(C(=O)NCc3cccc(Cl)c3F)C2=O)cn1 [A170] | 6.00 to 8.00 |
| O=C(NCc1cccc(Br)c1)[C@]1(O)CCN(c2cccc3ccccc23)C1=O [A53] | < 5.00 |
| O=C(NCc1cccc(Cl)c1F)[C@@]1(O)CCN(c2ccc(F)c(Cl)c2)C1=O [A56] | 6.00 to 8.00 |
| O=C(NCC1CCCCC1)[C@@]1(O)CCN(c2ccccc2)C1=O [A324] | 6.00 to 8.00 |
| O=C(NCc1cc(F)cc(Cl)c1)[C@@]1(O)CCN(C2CCCCC2)C1=O [A173] | 6.00 to 8.00 |
| CC(C)(C)c1nc(CCNC(=O)[C@@]2(O)CCN(c3ccccc3)C2=O)no1 [A10] | < 5.00 |
| CCNC(=O)N1CCc2cc(N3CC[C@](O)(C(=O)NCc4cc(F)cc(Cl)c4)C3=O)ccc21 [A290] | 6.00 to 8.00 |
| O=C(NCCc1cccs1)[C@@]1(Cl)CCN(c2ccccc2)C1=O [A61] | < 5.00 |
| CCCC(C)NC(=O)[C@@]1(O)CCN(c2ccccc2)C1=O (stereo partly drawn) [A298] | 5.00 to 6.00 |
| O=C(NCc1cc(F)cc(Cl)c1)C1(O)CCN(c2ccc3c(cnn3C3CCCCO3)c2)C1=O (stereo not drawn) [A279] | 6.00 to 8.00 |
| O=C(N1CCCCC1)[C@@]1(O)CCN(c2ccccc2)C1=O [A308] | < 5.00 |
| O=C(NCc1cc(F)cc(C(F)(F)F)c1)[C@@]1(O)CCN(c2ccc(F)cc2)C1=O [A162] | 6.00 to 8.00 |
| CC(C)n1cc(N2CC[C@](O)(C(=O)NCc3cccc(Cl)c3F)C2=O)cn1 [A200] | 6.00 to 8.00 |
| COCCN1CC[C@](O)(C(=O)NCc2cc(F)cc(F)c2)C1=O [A171] | 5.00 to 6.00 |
| CC(C)OCCCNC(=O)[C@@]1(O)CCN(c2ccccc2)C1=O [A301] | 5.00 to 6.00 |
| CN(C(=O)[C@@]1(O)CCN(c2ccccc2)C1=O)C1CCCC1 [A323] | 5.00 to 6.00 |

| Structure (SMILES) | pIC50 |
| --- | --- |
| CCc1nnnn1CCNC(=O)[C@@]1(O)CCN(c2ccccc2)C1=O [A13] | < 5.00 |
| O=C(NCc1cccc(Br)c1)[C@]1(O)CCN(c2ccc(F)c(Cl)c2)C1=O [A73] | 5.00 to 6.00 |
| O=C(NCc1cccc(Br)c1)[C@]1(O)CCN(c2ccc3ccccc3c2)C1=O [A70] | < 5.00 |
| O=C(NCc1cccc(Br)c1)[C@]1(O)CCN(c2ccc(F)cc2F)C1=O [A72] | < 5.00 |
| O=C(NCCc1nnc(C(F)(F)F)o1)[C@@]1(O)CCN(c2ccccc2)C1=O [A15] | < 5.00 |
| CC(C)n1cc(N2CC[C@](O)(C(=O)NCCc3cc(F)cc(Cl)c3)C2=O)cn1 [A240] | 6.00 to 8.00 |
| CS(=O)(=O)N1CCc2cc(N3CCC(O)(C(=O)NCc4cc(F)cc(Cl)c4)C3=O)ccc21 (stereo not drawn) [A253] | 6.00 to 8.00 |
| O=C(NCc1cccc(Br)c1)[C@@]1(O)CCN(c2ccc(Br)cc2)C1=O [A29] | 6.00 to 8.00 |
| O=C(NCCc1cc(F)cc(Cl)c1)[C@@]1(O)CCN(c2ccc(C(F)(F)F)cc2)C1=O [A233] | 6.00 to 8.00 |
| CC1CCN(C(=O)[C@@]2(O)CCN(c3ccccc3)C2=O)CC1 [A316] | 5.00 to 6.00 |
| O=CN1CCc2cc(N3CC[C@@](O)(C(=O)NCc4cc(F)cc(Cl)c4)C3=O)ccc21 [A285] | < 5.00 |
| CCCOCCNC(=O)[C@@]1(O)CCN(c2ccccc2)C1=O [A329] | 5.00 to 6.00 |
| O=C(NCc1cc(C(F)(F)F)cc(C(F)(F)F)c1)[C@@]1(O)CCN(c2ccc(F)cc2)C1=O [A163] | < 5.00 |
| O=C(NCCc1cccs1)[C@]1(O)CCN(c2ccc3ccccc3c2)C1=O [A69] | 6.00 to 8.00 |
| O=C(NCc1cccc(Br)c1)[C@]1(O)CCN(c2ccc(Br)cc2)C1=O [A76] | < 5.00 |
| O=C(NCc1cccc(Br)c1)[C@]1(O)CCN(c2ccc(F)cc2)C1=O [A41] | 5.00 to 6.00 |
| O=C(NCCc1cccs1)[C@@]1(O)CCN(c2cccc(Cl)c2)C1=O [A37, (S)-1-(3-chlorophenyl)-3-hydroxy-2-oxopyrrolidine-3-carboxylic acid (2-thiophen-2-ylethyl)amide] | 6.00 to 8.00 |
| O=C(NCCc1cccs1)[C@@]1(O)CCN(c2ccc(F)cc2F)C1=O [A31] | 6.00 to 8.00 |
| O=CN1CCc2cc(N3CC[C@](O)(C(=O)NCc4cc(F)cc(Cl)c4)C3=O)ccc21 [A282] | 6.00 to 8.00 |

Results, then the molecule that gave them:

| pIC50 | Structure (SMILES) |
| --- | --- |
| 6.00 to 8.00 | O=C(NCc1c(F)ccc(Cl)c1F)[C@@]1(O)CCN(c2ccccc2)C1=O [A21] |
| 6.00 to 8.00 | O=C(NCc1ccccc1C(F)(F)F)[C@@]1(O)CCN(c2ccccc2)C1=O [A302] |
| < 5.00 | O=C(NCc1cccc(Br)c1)[C@@]1(Cl)CCN(c2ccccc2)C1=O [A39] |
| < 5.00 | CCc1nnc(CCNC(=O)[C@@]2(O)CCN(c3ccccc3)C2=O)s1 [A35] |
| 6.00 to 8.00 | O=C(NCCc1nccs1)[C@@]1(O)CCN(c2ccccc2)C1=O [A17] |
| 5.00 to 6.00 | Cc1ccn(CCNC(=O)[C@@]2(O)CCN(c3ccccc3)C2=O)n1 [A19] |
| 6.00 to 8.00 | O=C(NCc1cccc(Cl)c1F)[C@@]1(O)CCN(c2ccccc2)C1=O [A20] |
| 6.00 to 8.00 | N#Cc1cccc(CNC(=O)[C@@]2(O)CCN(c3ccccc3)C2=O)c1 [A215] |
| 6.00 to 8.00 | O=C(NC1COc2ccccc2C1)[C@@]1(O)CCN(c2ccccc2)C1=O (stereo partly drawn) [A320] |
| 6.00 to 8.00 | O=C(NCc1cccc(C(F)(F)F)c1)[C@@]1(O)CCN(c2ccccc2)C1=O [A28] |
| < 5.00 | O=C(NCc1cccc(Br)c1)[C@]1(Cl)CCN(c2ccccc2)C1=O [A43] |
| 6.00 to 8.00 | O=C(NCc1ccc(F)c(Br)c1)[C@@]1(O)CCN(c2ccccc2)C1=O [A23] |
| < 5.00 | O=C(NCc1nc2ccccc2s1)[C@@]1(O)CCN(c2ccccc2)C1=O [A60] |
| < 5.00 | O=C(NCc1ccccn1)[C@@]1(O)CCN(c2ccccc2)C1=O [A26] |
| 5.00 to 6.00 | CC(C)CNC(=O)[C@@]1(O)CCN(c2ccccc2)C1=O [A305] |
| 5.00 to 6.00 | O=C(NCc1ccc2c(c1)OCO2)[C@@]1(O)CCN(c2ccccc2)C1=O [A295] |

| pIC50 | Structure (SMILES) |
| --- | --- |
| 6.00 to 8.00 | O=C(NCc1cc(Cl)ccc1F)[C@@]1(O)CCN(c2ccccc2)C1=O [A49] |
| 6.00 to 8.00 | O=C(NCc1cc(F)cc(C(F)(F)F)c1)[C@@]1(O)CCN(c2ccccc2)C1=O [A164] |
| < 5.00 | O=C(NCc1cccc(N2CCCC2)n1)[C@@]1(O)CCN(c2ccccc2)C1=O [A25] |
| 6.00 to 8.00 | O=C(NCc1cccc(Br)c1)[C@@]1(O)CCN(c2ccccc2)C1=O [A1] |
| 6.00 to 8.00 | O=C(NCc1ccc(F)c(Cl)c1F)[C@@]1(O)CCN(c2ccccc2)C1=O [A46] |
| 5.00 to 6.00 | Cc1nccn1-c1cccc(CNC(=O)[C@@]2(O)CCN(c3ccccc3)C2=O)c1 [A9] |
| 5.00 to 6.00 | O=C(NCc1cccc(OC(F)(F)F)c1)[C@@]1(O)CCN(c2ccccc2)C1=O [A8] |
| 5.00 to 6.00 | O=C(NCc1cccc(-c2nccs2)c1)[C@@]1(O)CCN(c2ccccc2)C1=O [A36] |
| 6.00 to 8.00 | O=C(NCc1ccco1)[C@@]1(O)CCN(c2ccccc2)C1=O [A62] |
| 6.00 to 8.00 | O=C(NCc1ccc(F)c(Cl)c1)[C@@]1(O)CCN(c2ccccc2)C1=O [A47] |
| 6.00 to 8.00 | C#CC(NC(=O)[C@@]1(O)CCN(c2ccccc2)C1=O)c1ccccc1 (stereo partly drawn) [A288] |
| 5.00 to 6.00 | O=C(NCCn1cccn1)[C@@]1(O)CCN(c2ccccc2)C1=O [A44] |
| < 5.00 | Cc1nnc(CCNC(=O)[C@@]2(O)CCN(c3ccccc3)C2=O)s1 [A14] |
| < 5.00 | O=C(NCc1ccc(F)c(Cl)c1)[C@]1(O)CCN(c2ccccc2)C1=O [A74] |
| 6.00 to 8.00 | O=C(NCc1cc(Br)ccc1F)[C@@]1(O)CCN(c2ccccc2)C1=O [A22] |
